Laboratory results published in patent US20240293483A1, “PROBIOTIC COMPOSITION FOR THE TREATMENT OF INCREASED INTESTINAL PERMEABILITY” (AB-BIOTICS, S.A., priority 2021, published 2024).

Columns and labels:
[1] = tested on: polyP; test: PolyP amount in culture supernatants (extracellular); settings: 16 h
Experimental: B. longum CECT 7894 was grown in MEI medium and Low Phosphate (LP) medium. The last medium has the same composition as MEI but without the addition of polyP precursors (K2HPO4 and KH2PO4), thus the strain cannot produce high amounts of polyP. After 16 h growth cultures were centrifuged and supernatants collected, filtered, and adjusted to neutral pH. PolyP amounts were measured as described in EXAMPLE 1.

[2] = tested on: Junctional adhesion protein-1 (JAM1); test: Expression of tight junction genes by qPCR: JAM1; format: cell-based; settings: Caco-2, 16 h, high-polyP vs low-polyP supernatant
Experimental: (§1) Caco-2 cells were exposed for 16 h to supernatants of B. longum CECT 7894 grown in MEI and LP media. Then, cells were recovered, and RNA extracted with TRIZOL reagent. cDNA was obtained from RNA using SuperScript VILO cDNA synthesis kit. Quantitative PCR (qPCR) reactions were performed with SYBR Green in the conditions indicated by manufacturer. Expression of tight junction proteins Zonula ocludens-1 (ZO1), Junctional adhesion protein-1 (JAM1) and occluding was quantified. Expression of 18S rRNA and GADPH genes were used for normalization.

[3] = tested on: HSP27; test: HSP27 production by Western blot; format: cell-based; settings: Caco-2, 16 h, high-polyP supernatant (MEI) vs low-polyP supernatant (LP); normalized to β-actin
Experimental: The production of HSP27 was studied in Caco-2 intestinal epithelial cells in confluence by Western blot assay as described by Alcántara et al., 2018 with some modifications. Bacterial supernatants were added to the cell cultures and incubation proceeded for 16 h. MEI and LP media were used as controls. To recover HSP27, cells were lysed with […] and boiled for 5 min. Proteins were separated in SDS-PAGE gel and then transferred to a nylon membrane (blot). The blots were incubated with a rabbit polyclonal anti-HSP27 serum or with a mouse monoclonal anti-β-actin antibody (protein used for normalization). After washing, secondary antibodies peroxidase-conjugated anti-rabbit IgG and anti-mouse IgG, respectively, were used. Blots images were captured, and proteins were quantified in an Imagin 680 system.

[4] = tested on: polyP; test: Polyphosphate (polyP) production assay: hypochlorite extraction from cells, DAPI fluorescence quantification
Experimental: For polyP production assay, malic enzyme induction (MEI) medium containing (per liter, w/v) 0.5% yeast extract, 0.5% tryptone, 0.4% K2HPO4, 0.5% KH2PO4, 0.02% MgSO4·7H2O, 0.005% MnSO4, 1 ml of Tween 80, 0.05% cysteine, and 0.5% glucose was used (Alcántara et al. 2014). The strains unable to grow in MEI were grown in MRScys. Cultures were inoculated at OD (595 nm) 0.1 and each strain was grown under the conditions indicated above. Growth was monitored by measuring OD for 16 h.
PolyP was isolated from cells by its resistance to hydrolysis with sodium hypochlorite as previously described (Alcántara et al. 2014). Cells were harvested by centrifugation and lysed in 1 ml of 5% sodium hypochlorite with gentle agitation for 45 min at room temperature. Insoluble material was pelleted by centrifugation at 16,000 g for 5 min at 4° C. and washed twice with 1 ml of 1.5 M NaCl plus 1 mM EDTA at 16,000 g for 5 min at 4° C. PolyP was extracted from the pellets with two consecutive washes with 1 ml of water and a centrifugation step at 16,000 g for 5 min at 4° C. between them. PolyP in the pooled water extracts was precipitated by adding 0.1 M NaCl and 1 volume of ethanol, followed by incubation on ice for 1 h. After centrifugation at 16,000 g for 10 min, the polyP pellet was resuspended in 50 μL of water.
A standard curve relating phosphate amount to fluorescence intensity was built to quantify the extracted polyP from the strains. As a first step, serial dilutions of a sample of polyP isolated from the polyphosphate-producer control strain Lactiplantibacillus plantarum strain WCFS1 (Alcántara et al. 2014) were prepared. Second, the dilutions were hydrolyzed with a volume of 2 M HCl, incubated at 95° C. for 15 min to release phosphate and then neutralized by adding […] of 2 M NaOH. Third, the released phosphate from each dilution was quantified with BIOMOL Green Kit (Enzo Life Sciences) as recommended by the manufacturer. In parallel, the released phosphate from each dilution was dyed using 4′,6-diamidino-2-phenylindole (DAPI) at a final concentration of 10 μM in 50 mM Tris-HCl pH 7.5, 50 mM NaCl buffer and fluorescence was measured with an excitation wavelength of 415 nm and emission at 550 nm in a fluorimeter. Finally, a standard curve was built with phosphate values and the corresponding fluorescence values obtained.
Once the standard curve is obtained, polyP amounts from the samples can be quantified according to fluorescence values, without the need of using BIOMOL Green kit. Therefore, the quantification of polyP from the strain samples was indirectly measured by DAPI fluorescence using the standard curve. Firstly, the extracted polyP was measured by fluorescence using DAPI at a final concentration of 10 μM in 50 mM Tris-HCl pH 7.5, 50 mM NaCl buffer with an excitation wavelength of 415 nm and emission at 550 nm in a fluorimeter. Then, the amount of polyP was calculated as nmol of phosphate by means of the standard curve. At least three biological replicates were performed.
B. longum CECT 7894 was grown in medium MEI without glucose supplemented with i) breast milk (1% v/v); ii) LNT (1% w/v); iii) polyamines, in quantities found in breast milk: 70.0, 424.2 and 610.0 […] of putrescine, spermidine and spermine, respectively, and glucose (0.5% w/v); and iv) glucose (0.5% w/v) as positive control. Growth (OD550) and polyP production were determined after 6 and 16 h of incubation.

[5] = tested on: Zonula ocludens-1 (ZO1); test: Expression of tight junction genes by qPCR: ZO1; format: cell-based; settings: Caco-2, 16 h, high-polyP vs low-polyP supernatant
Experimental: as §1

[6] = tested on: dextran sulfate sodium (DSS)-induced colitis; settings: mice, combined with infliximab; cited from earlier work
[7] = tested on: Caco-2 cells monolayer; test: Barrier integrity (TEER) and permeability (Papp of Lucifer Yellow) of Caco-2 monolayer; format: cell-based; settings: Caco-2, 72 h apical exposure to high-polyP supernatant (MEI culture) vs low-polyP supernatant and controls
Experimental: Integrity of Caco-2 cells monolayer was evaluated by measuring transepithelial electrical resistance (TEER) and permeability by the apparent permeability coefficients (Papp) of the paracellular transport marker Lucifer Yellow.
Caco-2 cells were seed in porous membrane inserts with apical (upper) and basolateral (lower) compartments. Medium Essential Medium Eagle (MEM) was added to both compartments. Cells were treated with supernatants of B. longum CECT 7894 grown in MEI and LP media. Additional cells were treated with MEM, non-fermented MEI and LP media and used as controls.
After 72 h of treatment, TEER and permeability were determined. TEER was measured with a Millicell®-ERS voltammeter. For the permeability assay, Lucifer Yellow was added to the apical compartment. At 15, 30, 45, 60, 90 and 120 min, aliquots were taken from the basolateral compartment and the fluorescence of the Lucifer Yellow transported was measured with a fluorescence microplate reader at excitation/emission wavelengths of 485/520 nm.

[8] = Stability of the strain in final product (plate counting of cfus, Zone II storage); format: physicochemical; settings: 25° C., 60% RH
Experimental: The product was packaged in glass amber bottles and stored under Zone II conditions (25° C., 60% Relative Humidity (RH)). […] Results were expressed in LOG (cfus). Trend line was obtained and predicted cfus at 12 months were estimated. Fold and log reduction comparing cfus between 0 and 12 months were calculated.

[9] = tested on: Caco-2 intestinal epithelial cells; test: Adhesion to the intestinal epithelium in vitro; format: cell-based; settings: Caco-2 monolayers, MOI 1:5, 1 h at 37° C., % of LOG cfu/mL
Experimental: Adhesion to the intestinal epithelium was studied in vitro using Caco-2 intestinal epithelial cells. Bacterial suspensions were added to Caco-2 monolayers (Multiplicity of infection (MOI) 1:5 cells to probiotic) and to wells without Caco-2 cells as controls. After 1 h of incubation at 37° C., medium was removed, cells were detached, and suspensions recovered. Bacteria were enumerated in the obtained suspension by serial dilutions and plate count. Bacteria in the medium of the control wells were also quantified. B. longum subsp. longum ATCC 15707 was used as quality control with a known adhesion percentage of 47-55.

[10] = tested on: Occludin; test: Expression of tight junction genes by qPCR: occludin; format: cell-based; settings: Caco-2, 16 h, high-polyP vs low-polyP supernatant
Experimental: as §1

**Q.** Which results are given for “Bifidobacterium longum subsp. longum KABP-042 (CECT 7894)”?
**A.** PolyP amount in supernatant, MEI medium ([1]; high phosphate (MEI medium)): 2.24 nmol; PolyP amount in supernatant, LP medium ([1]; low phosphate (LP medium)): 0.22 nmol; expression of tight junction protein JAM1 [2]: induced; production of HSP27 [3]: significantly higher production of HSP27; times more polyP than B. scardovii BAA-773 ([4]; 6 h): 140 times; times more polyP than L. plantarum WCFS1 ([4]; 6 h values (12.7 vs 230.9 nmol)): 18 times; PolyP 6 h, Polyamines ([4]; MEI + polyamines (putrescine, spermidine, spermine) + glucose 0.5%, 6 h): 111.0 nmol; PolyP 16 h, Polyamines ([4]; MEI + polyamines + glucose 0.5%, 16 h): 48.6 nmol; PolyP 6 h ([4]; MEI or MRScys, inoculated at OD 0.1, 6 h of growth, nmol of phosphate): 230.9 nmol; PolyP 16 h ([4]; MEI or MRScys, inoculated at OD 0.1, 16 h of growth, nmol of phosphate): 258.3 nmol; PolyP 6 h, Control (glucose) ([4]; MEI with glucose 0.5%, 6 h): 110.2 nmol; PolyP 16 h, Control (glucose) ([4]; MEI with glucose 0.5%, 16 h): 70.2 nmol; PolyP 6 h, LNT ([4]; MEI without glucose + LNT 1% w/v, 6 h): 117.0 nmol; PolyP 16 h, LNT ([4]; MEI without glucose + LNT 1% w/v, 16 h): 145.0 nmol; PolyP 6 h, Breast milk ([4]; MEI without glucose + breast milk 1% v/v, 6 h): 18.5 nmol; PolyP 16 h, Breast milk ([4]; MEI without glucose + breast milk 1% v/v, 16 h): 2.0 nmol; expression of tight junction protein ZO1 [5]: induced; effect on efficacy of infliximab in DSS-induced colitis [6]: improved the efficacy of infliximab; transepithelial electrical resistance (TEER) [7]: higher TEER; LOG (cfus) estimated at 12 months ([8]; final product in sunflower oil, trend line from 0-6 months): 9.01 LOG (cfus); LOG loss over 12 months ([8]; final product, 0 vs 12 months): ~0.5 LOG; Adhesion to intestinal epithelium (%) [9]: 70.8%; Adhesion to intestinal epithelium (%) ([9]; listed as B. longum subsp. longum KABP042 (CECT 7894)): 70.8%; expression of tight junction protein Occludin [10]: induced
